Measurements: ChEMBL document CHEMBL5230159, “Targeting Metalloenzymes by Boron-Containing Metal-Binding Pharmacophores” (J Med Chem, 2021)

Experiments:
[1] = biological target: T1, Arginase-1 (Rattus norvegicus, UniProt P07824); assay: Binding affinity to rat Arg I
T1 sequence (P07824 whole entry): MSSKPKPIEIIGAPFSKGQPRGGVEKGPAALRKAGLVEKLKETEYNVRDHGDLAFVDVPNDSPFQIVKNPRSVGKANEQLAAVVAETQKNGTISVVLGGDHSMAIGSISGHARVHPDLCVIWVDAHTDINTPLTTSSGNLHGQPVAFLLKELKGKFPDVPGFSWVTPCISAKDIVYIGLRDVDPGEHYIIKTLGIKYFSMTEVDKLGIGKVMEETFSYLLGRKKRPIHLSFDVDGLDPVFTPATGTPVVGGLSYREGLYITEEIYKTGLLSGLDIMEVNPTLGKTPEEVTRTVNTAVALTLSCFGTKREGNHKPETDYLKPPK

[2] = biological target: Carbonic anhydrase 12 (Homo sapiens, UniProt O43570); assay: Binding affinity to human CA12 assessed as inhibition constant
Carbonic anhydrase 12, sequence (O43570 whole entry): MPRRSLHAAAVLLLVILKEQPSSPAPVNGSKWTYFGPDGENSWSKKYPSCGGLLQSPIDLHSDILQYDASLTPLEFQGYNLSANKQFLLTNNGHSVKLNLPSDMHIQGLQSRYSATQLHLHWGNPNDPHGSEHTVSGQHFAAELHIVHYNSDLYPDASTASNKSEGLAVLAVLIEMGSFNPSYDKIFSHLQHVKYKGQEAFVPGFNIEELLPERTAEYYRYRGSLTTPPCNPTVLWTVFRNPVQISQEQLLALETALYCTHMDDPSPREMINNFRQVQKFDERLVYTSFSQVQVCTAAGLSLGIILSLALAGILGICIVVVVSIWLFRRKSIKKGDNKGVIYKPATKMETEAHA

[3] = biological target: Carbonic anhydrase 9 (Homo sapiens, UniProt Q16790); assay: Binding affinity to human CA9 assessed as inhibition constant
[4] = Oral bioavailability in C57BL/6 mouse at 25 to 50 mg/kg by LC-MS/MS analysis; assay type: ADME, organism-based; conditions: in vivo, dose 25-50 mg/kg
[5] = Clearance in C57BL/6 mouse at 25 to 50 mg/kg, po by LC-MS/MS analysis; assay type: ADME, organism-based; conditions: in vivo, dose 25-50 mg/kg
[6] = biological target: T2, 3',5'-cyclic-AMP phosphodiesterase 4B (Homo sapiens, UniProt Q07343); assay: Inhibition of human PDE4 catalytic domain expressed in Escherichia coli
T2 sequence (Q07343 whole entry, the tested form may be a part): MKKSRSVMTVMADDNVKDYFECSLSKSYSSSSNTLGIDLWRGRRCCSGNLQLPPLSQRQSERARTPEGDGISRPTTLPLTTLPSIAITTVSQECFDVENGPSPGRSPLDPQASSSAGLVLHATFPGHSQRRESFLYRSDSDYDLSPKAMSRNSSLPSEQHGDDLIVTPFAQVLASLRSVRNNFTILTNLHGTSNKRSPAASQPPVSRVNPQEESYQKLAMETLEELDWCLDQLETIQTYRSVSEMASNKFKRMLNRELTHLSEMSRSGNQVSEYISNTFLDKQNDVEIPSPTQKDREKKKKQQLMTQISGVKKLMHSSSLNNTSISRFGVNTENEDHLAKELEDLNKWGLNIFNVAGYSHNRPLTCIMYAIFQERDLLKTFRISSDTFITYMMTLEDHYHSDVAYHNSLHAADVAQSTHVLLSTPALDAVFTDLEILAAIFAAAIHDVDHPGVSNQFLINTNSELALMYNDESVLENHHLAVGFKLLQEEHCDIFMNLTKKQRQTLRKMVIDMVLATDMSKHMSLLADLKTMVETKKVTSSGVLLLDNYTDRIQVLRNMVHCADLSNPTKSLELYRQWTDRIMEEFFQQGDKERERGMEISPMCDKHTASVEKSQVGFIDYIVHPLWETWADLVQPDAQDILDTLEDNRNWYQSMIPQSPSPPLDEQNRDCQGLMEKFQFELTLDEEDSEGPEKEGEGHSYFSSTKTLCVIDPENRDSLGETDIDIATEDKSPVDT

[7] = biological target: T1, Arginase-1; assay: Inhibition of rat liver arginase using L-arginine as substrate incubated for 10 mins followed by substrate addition by scintillation counting analysis; assay type: tissue-based
[8] = biological target: T3, Arginase-1 (Homo sapiens, UniProt P05089); assay: Binding affinity to human Arg I
T3 sequence (P05089 whole entry): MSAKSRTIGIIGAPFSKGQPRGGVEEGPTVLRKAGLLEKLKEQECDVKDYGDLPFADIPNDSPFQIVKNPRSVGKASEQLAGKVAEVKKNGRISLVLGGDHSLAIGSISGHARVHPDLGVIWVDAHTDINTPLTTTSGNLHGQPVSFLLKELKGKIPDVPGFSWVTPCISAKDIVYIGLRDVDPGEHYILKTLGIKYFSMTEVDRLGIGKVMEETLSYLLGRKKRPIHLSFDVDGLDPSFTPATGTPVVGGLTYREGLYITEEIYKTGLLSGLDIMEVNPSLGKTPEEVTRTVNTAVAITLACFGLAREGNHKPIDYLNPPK

[9] = biological target: Carbonic anhydrase 1 (Homo sapiens, UniProt P00915); assay: Binding affinity to human CA1 assessed as inhibition constant
Carbonic anhydrase 1, sequence (P00915 whole entry): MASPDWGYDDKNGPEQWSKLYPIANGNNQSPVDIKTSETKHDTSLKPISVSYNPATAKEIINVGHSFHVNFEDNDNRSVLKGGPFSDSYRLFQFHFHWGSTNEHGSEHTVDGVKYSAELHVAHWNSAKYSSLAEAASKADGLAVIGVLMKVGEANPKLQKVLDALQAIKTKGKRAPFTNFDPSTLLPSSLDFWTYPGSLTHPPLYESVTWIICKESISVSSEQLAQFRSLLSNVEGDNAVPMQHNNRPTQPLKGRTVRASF

[10] = Inhibition of beta-lactamase TEM-1 (unknown origin); parameters: species or system Bacteria
[11] = Inhibition of Escherichia coli VIM-2
[12] = biological target: BlaVIM-1 (Escherichia coli, UniProt Q8GDC1); assay: Inhibition of Escherichia coli VIM-1
[13] = Inhibition of Escherichia coli NDM-1
[14] = Inhibition of Escherichia coli IMP-1
[15] = biological target: T4, Autotaxin (Homo sapiens, UniProt Q13822); assay: Inhibition of human recombinant ATX using ABTS as substrate by absorbance based analysis
[16] = biological target: T3, Arginase-1; assay: Inhibition of human Arg I
[17] = biological target: T4, Autotaxin; assay: Inhibition of human recombinant ATX
[18] = biological target: T2, 3',5'-cyclic-AMP phosphodiesterase 4B; assay: Inhibition of human PDE4 catalytic domain expressed in Escherichia coli at 10 uM relative to control
[19] = biological target: T5, Arginase-2, mitochondrial (Homo sapiens, UniProt P78540); assay: Binding affinity to human Arg II
T5 sequence (P78540 whole entry): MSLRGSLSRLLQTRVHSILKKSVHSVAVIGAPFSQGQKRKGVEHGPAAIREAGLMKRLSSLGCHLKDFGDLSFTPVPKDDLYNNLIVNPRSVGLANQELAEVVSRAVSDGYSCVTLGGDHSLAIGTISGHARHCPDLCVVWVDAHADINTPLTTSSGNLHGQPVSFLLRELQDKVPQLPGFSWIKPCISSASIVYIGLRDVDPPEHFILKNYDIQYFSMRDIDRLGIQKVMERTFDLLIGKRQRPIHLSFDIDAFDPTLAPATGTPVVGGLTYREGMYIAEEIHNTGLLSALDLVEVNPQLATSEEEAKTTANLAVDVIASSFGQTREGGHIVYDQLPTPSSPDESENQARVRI

## NC(CCCCC(=O)O)C(=O)O (stereo not drawn)
[1]
  Kd: 30000 µM

## OB1OCc2ccc(NC(=S)Nc3ccc(C(F)(F)F)cc3)cc21
[2]
  Ki: 0.071 µM
[3]
  Ki: 0.093 µM

## C[C@H](N)C(=O)N1C[C@H](CCCB(O)O)[C@](N)(C(=O)O)C1
[4]
  bioavailability: 91%
[5]
  CL/F: 10 mL/min/kg

## N#Cc1ccc(Oc2ccc3c(c2)COB3O)cc1 [CRISABOROLE]
[6]
  IC50: 0.11 µM

## N#Cc1ccc(Oc2ccc3c(c2)COB3O)cc1OCCO
[6]
  IC50: 0.024 µM

## N[C@@H](CCCCC=O)C(=O)O
[1]
  Ki: 60 µM

## NC(Cc1ccc(B(O)O)cc1)C(=O)O (stereo not drawn)
[7]
  IC50: 6000 µM

## CCOc1nc(-c2cncc(C3COB(O)C3)c2)c(F)cc1OC (stereo not drawn)
[6]
  IC50: 0.00012 µM

## N[C@@H](CCCC[N+](=O)[O-])C(=O)O
[8]
  Kd: 60 µM

## COc1ccc(C)cc1NC(=O)Nc1ccc2c(c1)B(O)OC2
[9]
  Ki: 0.098 µM
[2]
  Ki: 0.069 µM
[3]
  Ki: 0.414 µM

## CC(=O)N[C@H]1Cc2cccc(C(=O)O)c2OB1O
[10]
  IC50: 0.013 µM

## CCOC(=O)c1ccc(Oc2ccc3c(c2)COB3O)nc1
[6]
  IC50: 0.047 µM

## Nc1nccn1CCC[C@H](N)C(=O)O
[8]
  Ki: 30000 µM

## NCCN[C@H]1CC[C@H](CC(=O)N[C@H]2Cc3cccc(C(=O)O)c3OB2O)CC1
[11]
  IC50: 0.0005 µM
[12]
  IC50: 0.0079 µM
[13]
  IC50: 0.01 µM
[14]
  IC50: 2.5 µM

## O=C1S/C(=C\c2ccc(OCc3ccccc3B(O)O)cc2)C(=O)N1Cc1ccc(F)cc1
[15]
  IC50: > 0.005 µM

## N#Cc1ccc(Oc2ccc3c(c2)COB3O)cc1C#N
[6]
  IC50: 0.06 µM

## O=C(O)c1cccc2c1OB(O)[C@@H](NC(=O)C1CCCCC1)C2
[11]
  IC50: 0.051 µM
[13]
  IC50: 2.04 µM

## CC(=O)OCCOc1cc(Oc2ccc3c(c2)COB3O)ccc1C#N
[6]
  IC50: 0.0007 µM

## N[C@@H](CCCCB(O)O)C(=O)O
[16]
  IC50: 1.45 µM

## N#Cc1ccc(Oc2ccc3c(c2)COB3O)nc1
[6]
  IC50: 0.18 µM

## O=C1N=C(N2CCN(Cc3ccc(C(=O)O)cc3)CC2)S/C1=C\c1ccc(Cl)c(Cl)c1
[17]
  IC50: 0.025 µM

## O=C(O)c1ccc(Oc2ccc3c(c2)COB3O)nc1
[18]
  inhibition: 5%
[6]
  IC50: > 0.01 µM

## OB(O)/C=C/Cc1ccccc1
[19]
  Ki: 0.089 µM

## N[C@@H](CC/C=C/B(O)O)C(=O)O
[7]
  IC50: 15 µM
